Assay results: the NIST ThermoML archive (doi:10.1021/acs.jced.7b00106)
Values joined by “and” are separate entries in the source; they are usually repeats but may differ in a detail not shown here. Equal entries are not always repeated.

Conditions: Fluid (supercritical or subcritical phases), Hot wire method

FC(F)(F)/C=C/Cl [(E)-1-chloro-3,3,3-trifluoroprop-1-ene]
Conditions	thermal conductivity
451.94 K, 2166 kPa	0.02385 W/m/K
451.94 K, 5208 kPa	0.04623 W/m/K
451.95 K, 2165 kPa	0.02394 W/m/K
451.98 K, 987 kPa	0.02333 W/m/K
451.98 K, 990 kPa	0.0233 W/m/K
451.98 K, 3273 kPa	0.02726 W/m/K
451.99 K, 3272 kPa	0.02725 W/m/K
452.01 K, 1670 kPa	0.02346 W/m/K
452.01 K, 1671 kPa	0.0235 W/m/K
452.01 K, 2616 kPa	0.02474 W/m/K
452.01 K, 2617 kPa	0.02483 W/m/K
452.03 K, 5206 kPa	0.0467 W/m/K
452.03 K, 5207 kPa	0.04676 W/m/K
452.06 K, 2990 kPa	0.026 W/m/K
452.06 K, 2991 kPa	0.02595 W/m/K
452.09 K, 2165 kPa	0.02407 W/m/K and 0.024 W/m/K
452.12 K, 5207 kPa	0.0469 W/m/K
452.13 K, 5206 kPa	0.04663 W/m/K
452.14 K, 7293 kPa	0.04964 W/m/K
452.14 K, 7296 kPa	0.04969 W/m/K
452.15 K, 987 kPa	0.02338 W/m/K
452.16 K, 988 kPa	0.02337 W/m/K
452.16 K, 2617 kPa	0.02488 W/m/K
452.17 K, 1671 kPa	0.02356 W/m/K
452.17 K, 2617 kPa	0.02487 W/m/K
452.19 K, 5579 kPa	0.04728 W/m/K
452.2 K, 2991 kPa	0.02606 W/m/K
452.2 K, 5578 kPa	0.0472 W/m/K
452.21 K, 2990 kPa	0.026 W/m/K
452.23 K, 5207 kPa	0.04713 W/m/K
452.24 K, 5208 kPa	0.0472 W/m/K
452.25 K, 2165 kPa	0.024 W/m/K
452.29 K, 5577 kPa	0.04741 W/m/K
452.3 K, 5578 kPa	0.04745 W/m/K
452.31 K, 7293 kPa	0.04973 W/m/K
452.32 K, 7296 kPa	0.0498 W/m/K
452.33 K, 988 kPa	0.0233 W/m/K
452.33 K, 2615 kPa	0.02494 W/m/K
452.33 K, 2618 kPa	0.02493 W/m/K
452.33 K, 6080 kPa	0.04801 W/m/K
452.33 K, 6081 kPa	0.04806 W/m/K
452.34 K, 988 kPa	0.02333 W/m/K
452.34 K, 1671 kPa	0.02345 W/m/K
452.35 K, 1672 kPa	0.02348 W/m/K
452.36 K, 22580 kPa	0.06316 W/m/K
452.41 K, 5578 kPa	0.04763 W/m/K
452.42 K, 2166 kPa	0.02413 W/m/K
452.42 K, 2167 kPa	0.02408 W/m/K
452.42 K, 5577 kPa	0.04756 W/m/K
452.43 K, 12588 kPa	0.05554 W/m/K
452.43 K, 12589 kPa	0.05558 W/m/K
452.46 K, 18530 kPa	0.06032 W/m/K
452.46 K, 18535 kPa	0.06035 W/m/K
452.48 K, 7729 kPa	0.0503 W/m/K
452.48 K, 7733 kPa	0.05033 W/m/K
452.49 K, 10507 kPa	0.05349 W/m/K
452.5 K, 7296 kPa	0.04992 W/m/K
452.5 K, 7299 kPa	0.04984 W/m/K
452.51 K, 6079 kPa	0.04861 W/m/K
452.51 K, 6081 kPa	0.04828 W/m/K
452.51 K, 15249 kPa	0.05785 W/m/K
452.52 K, 10513 kPa	0.05353 W/m/K
452.52 K, 15256 kPa	0.05787 W/m/K
452.52 K, 22575 kPa	0.06312 W/m/K
452.52 K, 22580 kPa	0.06313 W/m/K
452.53 K, 989 kPa	0.02342 W/m/K
452.53 K, 5576 kPa	0.04776 W/m/K
452.53 K, 5577 kPa	0.0478 W/m/K
452.53 K, 6779 kPa	0.0491 W/m/K
452.53 K, 6780 kPa	0.0491 W/m/K
452.54 K, 985 kPa	0.02339 W/m/K
452.54 K, 1671 kPa	0.02355 W/m/K
